Measured values as given in patent US11866455B2, “Gold(III) complex, a conjugate of the gold(III) complex, a pharmaceutical composition comprising the gold(III) complex and uses and a process for preparing the gold(III) complex” (UNIVERSIDAD DE ALMERIA, priority 2018, dated 2024).
In brackets after ≈: the same amount, converted by molar mass. Where two headings read alike, the source gives them in different places.

Tests used:
[1] = system: MRSA methicillin resistant S. aureus; experiment: Antimicrobial activity (MIC) against S. aureus / MRSA; assay type: cell-based; conditions: Staphylococcus aureus, Cli, Eri, Pen, Lvx
[2] = system: MRSA methicillin resistant S. aureus; experiment: Antibiofilm activity (MBIC) against MRSA; assay type: cell-based; conditions: Cli, Eri, Pen, Lvx
[3] = Stability studies by 1H and 31P NMR; assay type: physicochemical; conditions: for stability towards reducing agent (31P NMR): CD3CN/H2O
Protocol: A solution of compound 2f in CD3CN (0.25 mL) was mixed with 0.25 mL of saline phosphate buffer (pH 7.4) in D2O and the mixture was monitored at 37° C. over three days through ^1H and ^31P NMR spectroscopy. […] Such observations show a substantial evidence for the stability of complexes 2 under physiological conditions.
Complexes 2 are also stable in the conditions used for the biological activity assays, as evidenced by the ^31P NMR spectra of a solution of compound 2f in CD3CN (0.25 mL) and 0.25 mL of ISOsensitest culture broth prepared in D2O (FIG. 15).
To gain a more complete picture of the stability and the solution behavior of these gold(III) compounds 2, the spectral changes produced by addition of classical reducing agents, i.e. glutathione (GSH) and ascorbic acid (AsAc) were also examined. Thus, solutions of compound 2f in CD3CN (0.25 mL) were mixed with solutions containing equimolar amounts of either GSH or AsAc in 0.25 mL of H2O.

A. baumannii = experiment: MIC against A. baumannii, alone and in combination with colistine; assay type: cell-based

`C[C@H]1COc2c(N3CCN(C)CC3)c(F)cc3c(=O)c(C(=O)O)cn1c23` [Levofloxacin, levofloxacin] showed an MIC ([1]; MRSA, strain MRSA 1, resistance profile Cip) of 128 µg/mL (≈ 354 µM), an MIC ([1]; strain MRSA 2, resistance profile Gen, Cip, read-out: MIC) of 64 µg/mL (≈ 177 µM) and an MBIC ([2]; strain MRSA 1, resistance profile Cip) of over 256 mg/L. The MBIC ([2]; strain MRSA 2, resistance profile Gen, Cip) was 128 mg/L.

With “[Gold(III) 2-((diisopropylamino)(phenyl)phosphorothioyl)phenyl) (pirrolidin-1-dithiocarbamate)] hexafluorophosphate [Compound 2f]” the “stability in the conditions of the biological activity assays” value ([3]; CD3CN / ISOsensitest culture broth in D2O) was “stable”, the “31P NMR signal of the complex (stability)” value ([3]; CD3CN / saline phosphate buffer (pH 7.4) in D2O, 37° C., three days) was “remained unaltered” and the “stability towards reducing agent (31P NMR)” value ([3]; equimolar ascorbic acid (AsAc)) was “maintained its chemical integrity”. The “stability towards reducing agent (31P NMR)” value ([3]; equimolar glutathione (GSH)) was “maintained its chemical integrity”.

colistine gave an MIC (A. baumannii; each antibiotic separately) of 64 µg/mL and an MIC in combination (A. baumannii; gold(III) complex and colistine used in combination) of 1 µg/mL.
